assay: HILIC, Waters ACQUITY UPLC BEH Amide, 150 × 2.1 mm, 1.7 µm, 40 °C, 0.5 mL/min, estimated dead time 0.66 min; A: 5% water + 95% acetonitrile; B: 70% water + 30% acetonitrile + 10 mM ammonium formate, pH 6.5; gradient (min/%B) 0/0 2/0 20/70 23/70 24/0 31/0; settings: stereoisomer not certain

| LC retention time | Compound |
| --- | --- |
| 2 min | O=C(O)CCCC(=O)O [GLUTARATE] |
| 1.88 min | CC(=O)NC(CS)C(=O)O (stereo not drawn) [N-ACETYLCYSTEINE] |
| 10.1 min | NC(N)=NCCCC(=O)O [4-GUANIDINOBUTANOATE] |
| 11.9 min | C[N+](C)(C)CC(CC(=O)[O-])OC(=O)CCCC(=O)O (stereo not drawn) [GLUTARYLCARNITINE] |
| 0.89 min | CC1(O)CCOC(=O)C1 (stereo not drawn) [MEVALOLACTONE] |
| 4.75 min | CC(=O)NC(C)C(=O)O (stereo not drawn) [N-ACETYLALANINE] |
| 0.84 min | CC(CCC(=O)O)C1CCC2C3CCC4CC(O)CCC4(C)C3CCC12C (stereo not drawn) [LITHOCHOLATE] |
| 1.83 min | CCC(C)C(=O)C(=O)[O-] (stereo not drawn) [3-METHYL-2-OXOVALERATE] |
| 0.9 min | O=C(O)Cc1ccccc1O [2-HYDROXYPHENYLACETATE] |
| 11.8 min | OCC1OC(OCC2OC(O)C(O)C(O)C2O)C(O)C(O)C1O (stereo not drawn) [MELIBIOSE] |
| 8.68 min | NCCc1ccc(O)c(O)c1 [DOPAMINE] |
| 4.34 min | CN1CC(=O)NC1=N [CREATININE] |
| 1.13 min | C=CC1=C(C)C(C=c2[nH]c(=Cc3[nH]c(C=C4NC(=O)C(C)=C4C=C)c(C)c3CCC(=O)O)c(CCC(=O)O)c2C)=NC1=O [BILIVERDIN] |
| 10.2 min | OCC1OC(OC2(CO)OC(CO)C(O)C2O)C(O)C(O)C1O (stereo not drawn) [SUCROSE] |
| 5.31 min | Cc1cnc(=O)[nH]c1N [5-METHYLCYTOSINE] |
| 10.6 min | NC1C(O)OC(COS(=O)(=O)O)C(O)C1O (stereo not drawn) [GLUCOSAMINE 6-SULFATE] |
| 3.9 min | O=C(O)CCC(=O)O [SUCCINATE] |
| 4.89 min | O=CNCC(=O)O [N-FORMYLGLYCINE] |
| 12.3 min | NCCC(=O)NC(Cc1cnc[nH]1)C(=O)O (stereo not drawn) [CARNOSINE] |
| 1.86 min | O=CC(O)C1OC(=O)C(O)C1O [D-GLUCURONOLACTONE] |

assay: RP, Phenomenex Kinetex C18, 150 × 2.1 mm, 1.7 µm, 30 °C, 0.3 mL/min, estimated dead time 1.1 min; A: water + 0.1% formic acid, pH 3; B: acetonitrile + 0.1% formic acid, pH 3; gradient (min/%B) 0/2 14/100 17/100 17.1/2 25/2; settings: stereoisomer not certain

| LC retention time | Compound |
| --- | --- |
| 4.51 min | CC=CC=CC(=O)[O-] [SORBATE] |
| 4.46 min | O=C(O)c1cc(O)ccc1[O-] [2,5-DIHYDROXYBENZOATE] |
| 2.92 min | O=C(O)CCCC(=O)O [GLUTARATE] |
| 1.46 min | NC(CCC(=O)NC(CS)C(=O)NCC(=O)O)C(=O)O (stereo not drawn) [GLUTATHIONE REDUCED] |
| 4.94 min | O=C(O)C(=O)Cc1ccccc1 [PHENYLPYRUVATE] |
| 2.62 min | CC(=O)NC(CS)C(=O)O (stereo not drawn) [N-ACETYLCYSTEINE] |
| 2.19 min | CC(C(=O)O)C(=O)O [METHYLMALONATE] |
| 4.92 min | O=C(O)c1cccc(O)c1[O-] [2,3-DIHYDROXYBENZOATE] |
| 3.93 min | O=C(O)Cc1ccc(O)c(O)c1 [3,4-DIHYDROXYPHENYLACETATE] |
| 1.41 min | O=c1ccn(C2CC(O)C(COP(=O)(O)O)O2)c(=O)[nH]1 (stereo not drawn) [DEOXYURIDINE-MONOPHOSPHATE] |
| 1.53 min | O=C([O-])C=CC(=O)[O-] [MALEATE] |
| 4.87 min | O=C(O)c1cccc([O-])c1 [3-HYDROXYBENZOATE] |
| 1.39 min | NC(N)=NCCCC(=O)O [4-GUANIDINOBUTANOATE] |
| 2.56 min | C[N+](C)(C)CC(CC(=O)[O-])OC(=O)CCCC(=O)O (stereo not drawn) [GLUTARYLCARNITINE] |
| 1.41 min | NC(=O)c1ccc[n+](C2OC(COP(=O)(O)OP(=O)(O)OCC3OC(n4cnc5c(N)ncnc54)C(OP(=O)(O)O)C3O)C(O)C2O)c1 (stereo not drawn) [NADP] |
| 3.16 min | C=C(CC(=O)O)C(=O)O [ITACONATE] |
| 1.7 min | O=C(O)C(O)c1ccc(O)c(O)c1 (stereo not drawn) [3,4 DIHYDROXYMANDELATE] |
| 2.04 min | CC1(O)CCOC(=O)C1 (stereo not drawn) [MEVALOLACTONE] |
| 1.38 min | NC(=O)c1ncn(C2OC(COP(=O)(O)O)C(O)C2O)c1N (stereo not drawn) [AICAR] |
| 1.52 min | Cc1cn(C2CC(O)C(COP(=O)(O)OP(=O)(O)OC3OC(CO)C(O)C(O)C3O)O2)c(=O)[nH]c1=O [DTDP-D-GLUCOSE] |
| 1.97 min | CC(=O)NC(C)C(=O)O (stereo not drawn) [N-ACETYLALANINE] |

| LC retention time | Compound |
| --- | --- |
| 4.45 min | O=C([O-])C(O)c1ccccc1 (stereo not drawn) [MANDELATE] |
| 1.38 min | O=C(O)C1CCCCN1 (stereo not drawn) [PIPECOLATE] |
| 1.4 min | NC(=O)c1ccc[n+](C2OC(COP(=O)(O)OP(=O)([O-])OCC3OC(n4cnc5c(N)ncnc54)C(O)C3O)C(O)C2O)c1 (stereo not drawn) [BETA-NICOTINAMIDE ADENINE DINUCLEOTIDE] |
| 1.41 min | Nc1ncnc2c1ncn2C1OC(COP(=O)(O)O)C(O)C1O (stereo not drawn) [ADENOSINE-MONOPHOSPHATE] |
| 4.59 min | O=C(O)Cc1ccc(O)cc1 [P-HYDROXYPHENYLACETATE] |
| 1.67 min | Nc1nc2c(ncn2C2CC(O)C(COP(=O)(O)O)O2)c(=O)[nH]1 (stereo not drawn) [DEOXYGUANOSINE-MONOPHOSPHATE] |
| 2.94 min | COc1cc(C(O)C(=O)O)ccc1O (stereo not drawn) [3-METHOXY-4-HYDROXYMANDELATE] |
| 3.77 min | Oc1ccccc1O [PYROCATECHOL] |
| 1.88 min | O=C(O)C=CC(=O)O [FUMARATE] |
| 4.82 min | O=C(O)Cc1cccc(O)c1 [3-HYDROXYPHENYLACETATE] |
| 2.37 min | CCC(O)C(=O)[O-] (stereo not drawn) [2-HYDROXYBUTYRATE] |
| 12.8 min | CC(CCC(=O)O)C1CCC2C3CCC4CC(O)CCC4(C)C3CCC12C (stereo not drawn) [LITHOCHOLATE] |
| 9.58 min | CC(=O)N[C@@H]1[C@@H](O)[C@H](O)[C@@H](CO)O[C@H]1N [2-ACETAMIDO-2-DEOXY-BETA-D-GLUCOSYLAMINE] |
| 1.57 min | O=C(O)CC(O)(CC(=O)O)C(=O)O [CITRATE] |
| 1.9 min | CCC(C)C(N)C(=O)O (stereo not drawn) [ISOLEUCINE] |
| 3.46 min | CCC(C(=O)O)C(=O)O [ETHYLMALONATE] |
| 2.04 min | Nc1ccccc1S(=O)(=O)O [ANILINE-2-SULFONATE] |
| 1.5 min | Cc1ncc(COP(=O)(O)O)c(C=O)c1O [PYRIDOXAL-PHOSPHATE] |
| 1.45 min | NC(=O)c1ccc[n+](C2OC(COP(=O)(O)OP(=O)(O)OCC3OC(n4cnc5c(=O)[nH]cnc54)C(O)C3O)C(O)C2O)c1 (stereo not drawn) [NICOTINAMIDE HYPOXANTHINE DINUCLEOTIDE] |
| 3.31 min | Cc1ccc(O)c(O)c1 [4-METHYLCATECHOL] |

| Compound | LC retention time |
| --- | --- |
| O=C([O-])Cc1ccccc1 [PHENYLACETATE] | 3.97 min |
| O=Cc1ccccc1 [BENZALDEHYDE] | 3.93 min |
